Test results from patent US12441703B2, “Carboxamides as modulators of sodium channels” (VERTEX PHARMACEUTICALS INCORPORATED, priority 2019, dated 2025).

What follows are compounds tested against human NaV 1.8 (Homo sapiens, UniProt Q9Y5Y9) (assay: E-VIPR assay for detecting and measuring NaV inhibition properties). Conditions: E-VIPR assay conducted in the absence of human serum (compounds marked *); HEK cells expressing truncated human NaV 1.8; read-out: IC50.
Type: cell-based
Procedure, shortened: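 HEK cells with truncated human NaV1.8 plus KIR2.1 BacMam, hexyl dye loaded 20 min, compound 30 min at room temperature, 11-point 3-fold series […], 0.625% DMSO, with or without human serum. E-VIPR biphasic stimulation at 10 Hz for 10 s; membrane-potential response read as normalized coumarin/oxonol ratio.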

human NaV 1.8, sequence (Q9Y5Y9 whole entry, looked up, the tested form may be a part): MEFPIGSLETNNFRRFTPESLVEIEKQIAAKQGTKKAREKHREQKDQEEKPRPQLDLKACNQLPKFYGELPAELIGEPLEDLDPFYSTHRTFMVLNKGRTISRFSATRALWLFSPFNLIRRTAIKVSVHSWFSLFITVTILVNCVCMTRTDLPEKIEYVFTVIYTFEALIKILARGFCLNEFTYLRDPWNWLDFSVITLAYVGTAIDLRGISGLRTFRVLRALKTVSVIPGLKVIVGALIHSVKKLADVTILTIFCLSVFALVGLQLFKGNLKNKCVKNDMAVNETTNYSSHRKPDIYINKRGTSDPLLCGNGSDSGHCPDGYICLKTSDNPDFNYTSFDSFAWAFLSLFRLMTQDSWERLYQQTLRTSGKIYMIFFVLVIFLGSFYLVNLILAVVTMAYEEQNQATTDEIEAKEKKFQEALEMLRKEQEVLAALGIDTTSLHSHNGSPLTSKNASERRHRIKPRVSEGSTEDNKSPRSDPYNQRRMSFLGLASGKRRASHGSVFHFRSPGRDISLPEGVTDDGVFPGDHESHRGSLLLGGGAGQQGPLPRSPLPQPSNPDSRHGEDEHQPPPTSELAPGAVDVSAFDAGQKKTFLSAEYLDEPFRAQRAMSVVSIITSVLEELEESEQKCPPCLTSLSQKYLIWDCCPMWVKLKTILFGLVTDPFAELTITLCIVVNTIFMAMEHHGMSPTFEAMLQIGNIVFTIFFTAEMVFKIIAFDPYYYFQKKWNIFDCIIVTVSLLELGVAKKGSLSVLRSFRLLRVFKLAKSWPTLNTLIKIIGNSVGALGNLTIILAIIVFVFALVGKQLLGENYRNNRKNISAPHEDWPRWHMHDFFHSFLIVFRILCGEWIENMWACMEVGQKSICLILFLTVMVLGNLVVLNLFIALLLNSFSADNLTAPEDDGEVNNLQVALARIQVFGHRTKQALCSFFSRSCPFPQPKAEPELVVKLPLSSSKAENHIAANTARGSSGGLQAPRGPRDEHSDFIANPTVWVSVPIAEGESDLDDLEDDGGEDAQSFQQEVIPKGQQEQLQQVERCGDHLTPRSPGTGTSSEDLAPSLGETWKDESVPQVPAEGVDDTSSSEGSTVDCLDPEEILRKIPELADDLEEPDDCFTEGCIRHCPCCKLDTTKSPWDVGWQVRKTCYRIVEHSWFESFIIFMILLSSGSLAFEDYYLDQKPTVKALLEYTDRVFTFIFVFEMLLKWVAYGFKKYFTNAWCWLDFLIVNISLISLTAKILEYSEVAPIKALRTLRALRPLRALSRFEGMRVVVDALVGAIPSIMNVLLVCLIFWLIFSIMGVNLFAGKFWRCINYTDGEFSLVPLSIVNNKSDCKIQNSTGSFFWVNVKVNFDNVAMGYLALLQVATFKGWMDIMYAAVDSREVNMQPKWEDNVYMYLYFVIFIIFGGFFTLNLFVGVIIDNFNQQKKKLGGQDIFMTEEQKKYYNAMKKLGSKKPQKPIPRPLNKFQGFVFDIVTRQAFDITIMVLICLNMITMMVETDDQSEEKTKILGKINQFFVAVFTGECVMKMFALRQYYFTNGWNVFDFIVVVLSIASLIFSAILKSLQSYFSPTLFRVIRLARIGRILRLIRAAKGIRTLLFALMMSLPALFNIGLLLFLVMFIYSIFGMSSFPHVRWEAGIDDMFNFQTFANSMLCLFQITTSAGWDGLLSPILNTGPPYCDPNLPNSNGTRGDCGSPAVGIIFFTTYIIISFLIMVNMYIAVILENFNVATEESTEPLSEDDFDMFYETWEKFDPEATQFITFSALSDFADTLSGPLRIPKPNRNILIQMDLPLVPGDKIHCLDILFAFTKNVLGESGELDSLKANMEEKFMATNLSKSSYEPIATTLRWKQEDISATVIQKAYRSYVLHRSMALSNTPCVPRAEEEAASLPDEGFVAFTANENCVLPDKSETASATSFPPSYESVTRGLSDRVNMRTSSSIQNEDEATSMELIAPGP

IC50	Compound
2 nM	COc1cc(OC(F)(F)F)ccc1Oc1cc(OC)c(C)c(F)c1C(=O)Nc1ccnc(C(N)=O)c1 [Compound 362, 4-[[2-fluoro-4-methoxy-6-[2-methoxy-4-(trifluoromethoxy)phenoxy]-3-methyl-benzoyl]amino]pyridine-2-carboxamide]

Same assay, conditions: E-VIPR assay conducted in the presence of human serum; HEK cells expressing truncated human NaV 1.8; read-out: IC50

Compound	IC50
NC(=O)c1ccc(NC(=O)c2c(Oc3ccc(OC(F)(F)F)cc3F)ccc(C(F)(F)F)c2F)cn1 [Compound 221, 5-[[2-fluoro-6-[2-fluoro-4-(trifluoromethoxy)phenoxy]-3-(trifluoromethyl)benzoyl]amino]pyridine-2-carboxamide]	430 nM
[2H]C([2H])([2H])Oc1cc(OC(F)(F)F)ccc1Oc1ccc2c(c1C(=O)Nc1ccc(C(N)=O)nc1)OC(F)(F)O2 [Compound 115]	> 3000 nM
COc1cc(C(F)(F)C(F)(F)F)ccc1Oc1ccc(C(F)(F)F)c(F)c1C(=O)Nc1ccc(C(N)=O)nc1 [Compound 210, 5-[[2-fluoro-6-[2-methoxy-4-(1,1,2,2,2-pentafluoroethyl)phenoxy]-3-(trifluoromethyl)benzoyl]amino]pyridine-2-carboxamide]	280 nM
Cc1c(C(F)(F)F)ccc(Oc2c(F)cc(F)cc2F)c1C(=O)Nc1ccc(C(N)=O)nc1 [Compound 230, 5-[[2-methyl-3-(trifluoromethyl)-6-(2,4,6-trifluorophenoxy)benzoyl]amino]pyridine-2-carboxamide]	> 3000 nM
COc1c(Oc2ccc(OC(F)(F)F)c(F)c2C(=O)Nc2ccnc(C(N)=O)c2)ccc(OC(F)(F)F)c1F [Compound 322, 4-[[2-fluoro-6-[3-fluoro-2-methoxy-4-(trifluoromethoxy)phenoxy]-3-(trifluoromethoxy)benzoyl]amino]pyridine-2-carboxamide]	6.1 nM
COc1cc(F)ccc1Oc1ccc(C(F)(F)F)c(F)c1C(=O)Nc1ccc(C(N)=O)nc1 [Compound 104, 5-[[2-fluoro-6-(4-fluoro-2-methoxy-phenoxy)-3-(trifluoromethyl)benzoyl]amino]pyridine-2-carboxamide]	380 nM
COc1cc(OC(F)(F)F)ccc1Oc1cc(C2=CCC(C(F)(F)F)CC2)ccc1C(=O)Nc1ccnc(C(N)=O)c1 (centres unmarked) [Compound 1031]	2050 nM
Cc1c(C(F)(F)F)ccc(Oc2ccc(OC(C)C)cc2F)c1C(=O)Nc1ccnc(C(N)=O)c1 [Compound 132, 4-[[6-(2-fluoro-4-isopropoxy-phenoxy)-2-methyl-3-(trifluoromethyl)benzoyl]amino]pyridine-2-carboxamide]	> 3000 nM
COc1cc(OC(F)(F)F)ccc1Oc1cc2c(c(F)c1C(=O)Nc1ccc(C(N)=O)nc1)OCCO2 [Compound 1034, 5-[[5-fluoro-7-[2-methoxy-4-(trifluoromethoxy)phenoxy]-2,3-dihydro-1,4-benzodioxine-6-carbonyl]amino]pyridine-2-carboxamide]	160 nM
CC(C)Oc1ccc(Oc2cc(C(F)(F)F)ccc2C(=O)Nc2ccnc(C(N)=O)c2)cc1 [Compound 164, 4-[[2-(4-isopropoxyphenoxy)-4-(trifluoromethyl)benzoyl]amino]pyridine-2-carboxamide]	> 3000 nM
COc1c(Oc2ccc(C(F)(F)F)c(F)c2C(=O)Nc2ccnc(C(N)=O)c2)ccc(OC(F)F)c1F [Compound 343, 4-[[6-[4-(difluoromethoxy)-3-fluoro-2-methoxy-phenoxy]-2-fluoro-3-(trifluoromethyl)benzoyl]amino]pyridine-2-carboxamide]	4.8 nM
[2H]C([2H])([2H])Oc1cc(OC(F)(F)F)ccc1Oc1cc(C2=CCC(F)(F)CC2)cc(F)c1C(=O)Nc1ccnc(C(N)=O)c1 [Compound 1003, 4-[[4-(4,4-difluorocyclohexen-1-yl)-2-fluoro-6-[2-(trideuteriomethoxy)-4-(trifluoromethoxy)phenoxy]benzoyl]amino]pyridine-2-carboxamide]	26 nM
Cc1cc(F)ccc1Oc1cc(C(F)(F)F)ccc1C(=O)Nc1ccnc(C(N)=O)c1 [Compound 113, 4-[[2-(4-fluoro-2-methyl-phenoxy)-4-(trifluoromethyl)benzoyl]amino]pyridine-2-carboxamide]	> 3000 nM
CC(C)Oc1ccc(Oc2cc(C(F)(F)F)ccc2C(=O)Nc2ccnc(C(N)=O)c2)cc1F [Compound 160, 4-[[2-(3-fluoro-4-isopropoxy-phenoxy)-4-(trifluoromethyl)benzoyl]amino]pyridine-2-carboxamide]	> 3000 nM
NC(=O)c1cc(NC(=O)c2cc(C(F)(F)F)ccc2Oc2ccc(F)cc2Cl)ccn1 [Compound 5, 4-[[2-(2-chloro-4-fluoro-phenoxy)-5-(trifluoromethyl)benzoyl]amino]pyridine-2-carboxamide]	1200 nM
COc1cc(F)ccc1-c1ccc(C(F)(F)F)c(F)c1C(=O)Nc1ccnc(C(N)=O)c1 [Compound 251, 4-[[2-fluoro-6-(4-fluoro-2-methoxy-phenyl)-3-(trifluoromethyl)benzoyl]amino]pyridine-2-carboxamide]	> 3000 nM
CC(C)Oc1ccc(Oc2cccc(C(F)(F)F)c2C(=O)Nc2ccnc(C(N)=O)c2)c(F)c1 [Compound 81, 4-[[2-(2-fluoro-4-isopropoxy-phenoxy)-6-(trifluoromethyl)benzoyl]amino]pyridine-2-carboxamide]	> 3000 nM
CC(C)(C)c1cc(Cc2ccccc2)c(C(=O)Nc2ccnc(C(N)=O)c2)cn1 [Compound 349, 4-benzyl-6-tert-butyl-N-(2-carbamoyl-4-pyridyl)pyridine-3-carboxamide]	> 3000 nM

Next, values leading:

IC50	Compound
59 nM	COc1cc(OC(F)(F)F)ccc1Oc1ccc(F)c(F)c1C(=O)Nc1ccnc(C(N)=O)c1 [Compound 259, 4-[[2,3-difluoro-6-[2-methoxy-4-(trifluoromethoxy)phenoxy]benzoyl]amino]pyridine-2-carboxamide]
1.3 nM	COc1c(Cl)cc(Oc2ccc(OC(F)(F)F)c(F)c2OC)c(C(=O)Nc2ccnc(C(N)=O)c2)c1F [Compound 326, 4-[[4-chloro-2-fluoro-6-[3-fluoro-2-methoxy-4-(trifluoromethoxy)phenoxy]-3-methoxy-benzoyl]amino]pyridine-2-carboxamide]
72 nM	Cc1c2c(cc(Oc3ccc(OC(F)(F)F)cc3Cl)c1C(=O)Nc1ccnc(C(N)=O)c1)OC(F)(F)O2 [Compound 239, 4-[[6-[2-chloro-4-(trifluoromethoxy)phenoxy]-2,2-difluoro-4-methyl-1,3-benzodioxole-5-carbonyl]amino]pyridine-2-carboxamide]
765 nM	Cc1cc(Cl)cc(C)c1Oc1ccc(C(F)(F)F)c(C)c1C(=O)Nc1ccnc(C(N)=O)c1 [Compound 144, 4-[[6-(4-chloro-2,6-dimethyl-phenoxy)-2-methyl-3-(trifluoromethyl)benzoyl]amino]pyridine-2-carboxamide]
360 nM	COc1cc(OC(F)(F)F)ccc1Oc1cc(C2=CCC3(CC2)OCCO3)cc(F)c1C(=O)Nc1ccnc(C(N)=O)c1 [Compound 1015, 4-[[4-(1,4-dioxaspiro[4.5]dec-7-en-8-yl)-2-fluoro-6-[2-methoxy-4-(trifluoromethoxy)phenoxy]benzoyl]amino]pyridine-2-carboxamide]
210 nM	[2H]C([2H])([2H])Oc1cc(OC(F)(F)F)ccc1Oc1cc(-c2cccnc2)cc(F)c1C(=O)Nc1ccnc(C(N)=O)c1 [Compound 90, 4-[[2-fluoro-4-(3-pyridyl)-6-[2-(trideuteriomethoxy)-4-(trifluoromethoxy)phenoxy]benzoyl]amino]pyridine-2-carboxamide]
93 nM	COc1cc(OC(F)(F)F)ccc1Oc1cc(C(C)(C)C)cc(C)c1C(=O)Nc1ccnc(C(N)=O)c1 [Compound 237, 4-[[4-tert-butyl-2-[2-methoxy-4-(trifluoromethoxy)phenoxy]-6-methyl-benzoyl]amino]pyridine-2-carboxamide]
1550 nM	COc1cc(OC(F)(F)F)ccc1Oc1cc(C2CCC(OC)CC2)ccc1C(=O)Nc1ccnc(C(N)=O)c1 (single isomer, unassigned) [1032 (second diastereomer), 4-[[4-(4-methoxycyclohexyl)-2-[2-methoxy-4-(trifluoromethoxy)phenoxy]benzoyl]amino]pyridine-2-carboxamide]
35 nM	COc1cc(OC(F)(F)F)ccc1Oc1cc(OC)c(Cl)c(C)c1C(=O)Nc1ccnc(C(N)=O)c1 [Compound 265, 4-[[3-chloro-4-methoxy-6-[2-methoxy-4-(trifluoromethoxy)phenoxy]-2-methyl-benzoyl]amino]pyridine-2-carboxamide]
3.1 nM	CCOc1cc(OC(F)(F)F)ccc1Oc1cc(OC)c(C(F)(F)F)c(F)c1C(=O)Nc1ccnc(C(N)=O)c1 [Compound 347, 4-[[6-[2-ethoxy-4-(trifluoromethoxy)phenoxy]-2-fluoro-4-methoxy-3-(trifluoromethyl)benzoyl]amino]pyridine-2-carboxamide]
12 nM	COc1cc(OC(F)(F)F)ccc1Oc1ccc(C2CC2)c(C)c1C(=O)Nc1ccnc(C(N)=O)c1 [Compound 181, 4-[[3-cyclopropyl-6-[2-methoxy-4-(trifluoromethoxy)phenoxy]-2-methyl-benzoyl]amino]pyridine-2-carboxamide]
13 nM	[2H]C([2H])([2H])Oc1cc(OC(F)(F)F)ccc1Oc1cc(C2=CCCC2)cc(F)c1C(=O)Nc1ccnc(C(N)=O)c1 [Compound 1010, 4-[[4-(cyclopenten-1-yl)-2-fluoro-6-[2-(trideuteriomethoxy)-4-(trifluoromethoxy)phenoxy]benzoyl]amino]pyridine-2-carboxamide]
120 nM	[2H]C([2H])([2H])Oc1cc(OC(F)(F)F)ccc1Oc1cc(C2=CCOCC2)cc(F)c1C(=O)Nc1ccnc(C(N)=O)c1 [Compound 1005, 4-[[4-(3,6-dihydro-2H-pyran-4-yl)-2-fluoro-6-[2-(trideuteriomethoxy)-4-(trifluoromethoxy)phenoxy]benzoyl]amino]pyridine-2-carboxamide]
